Tested on: BJeLR fibroblasts viability, Alamar Blue fluorescence, 48 h
Experiment: viability loss in BJeLR fibroblasts, dose response, cell-based, Ras selective lethality, dry powder, set 4 (AID 540318)

With `COC(=O)c1ccc([C@@H]2c3[nH]c4ccccc4c3C[C@@H](C(=O)OC)N2C(=O)CCl)cc1` the AC50 was 0.79 µM.

`Cc1onc(C(=O)N2CCN(C(c3ccccc3)c3ccccc3)CC2)c1[N+](=O)[O-]` gave an AC50 of 2.81 µM.

Work on `Cc1onc(C(=O)N2CCN(C(c3ccccc3)c3ccc(Cl)cc3)CC2)c1[N+](=O)[O-]` (configuration not stated) yielded an AC50 of 0.706 µM.

Compound `Cc1onc(C(=O)N2CCN(C(c3ccc(F)cc3)c3ccc(F)cc3)CC2)c1[N+](=O)[O-]` has an AC50 of 0.934 µM.

`Cc1onc(CC(=O)N2CCN(C(c3ccc(F)cc3)c3ccc(F)cc3)CC2)c1[N+](=O)[O-]` showed an AC50 of 28 µM.

`O=C(c1cc([N+](=O)[O-])ccn1)N1CCN(C(c2ccccc2)c2ccccc2)CC1` was tested, and the AC50 was 37.1 µM.

With `Cc1onc(C(=O)N2CCCN(C(c3ccccc3)c3ccccc3)CC2)c1[N+](=O)[O-]` the AC50 was 3.45 µM.

`Cc1onc(C(=O)N2CCN(C(c3ccc(Cl)cc3)c3ccc(Cl)cc3)CC2)c1[N+](=O)[O-]` gave an AC50 of 0.364 µM.

`O=C(c1ccc([N+](=O)[O-])o1)N1CCN(C(c2ccc(F)cc2)c2ccc(F)cc2)CC1` was tested, and the AC50 was 34.9 µM.

Work on `O=C(NCCNC(c1ccccc1)c1ccccc1)c1ccc([N+](=O)[O-])o1` yielded an AC50 of 25.9 µM.

Compound `CCOc1ccccc1-n1c(C(C)N2CCN(C(=O)COc3ccc(Cl)cc3)CC2)nc2ccccc2c1=O` (configuration not stated) has an AC50 of 1.43 µM.

For `COc1ccc(C(c2ccc(OC)cc2)N2CCN(C(=O)c3noc(C)c3[N+](=O)[O-])CC2)cc1`, the AC50 was 4.29 µM.
